Numbering of substitutions follows the chain as printed. Like-named read-outs stand apart in the source and are kept apart here.
How the values were obtained:
RET(KD: 658-1114 G810R) = target: T1, RET(KD: 658-1114 G810R) (Homo sapiens, UniProt P07949, G810R); experiment: HiBiT-Degradation, RET G810R degradation assay (Nano-Glo HiBiT Lytic), 293T.165 cells; format: cell-based; details: for Emax / DC50: 6.0 hours
T1 construct: 658-1114; expressed in transfected cells; host or cells: 293T.165 (293T cells, generated in-house)
T1 sequence (P07949 658-1114 G810R): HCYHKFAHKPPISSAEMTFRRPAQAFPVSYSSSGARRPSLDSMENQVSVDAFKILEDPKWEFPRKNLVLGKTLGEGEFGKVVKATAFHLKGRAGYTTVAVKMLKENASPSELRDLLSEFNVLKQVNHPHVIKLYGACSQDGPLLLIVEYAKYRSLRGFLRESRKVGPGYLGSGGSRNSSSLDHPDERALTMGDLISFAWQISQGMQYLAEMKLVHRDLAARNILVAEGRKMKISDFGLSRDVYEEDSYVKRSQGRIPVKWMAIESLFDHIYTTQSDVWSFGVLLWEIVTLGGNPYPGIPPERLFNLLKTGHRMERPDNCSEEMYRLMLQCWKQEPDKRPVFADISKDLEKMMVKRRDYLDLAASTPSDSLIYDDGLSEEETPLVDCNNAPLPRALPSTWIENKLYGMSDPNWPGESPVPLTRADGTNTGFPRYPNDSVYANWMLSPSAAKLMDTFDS
Procedure, shortened: (§1)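 HEK293T lines expressing HiBiT-tagged RET kinase domain, wild-type (293T.144) or G810R (293T.165), treated 6 h in duplicate, 11-point half-log series from 10 μM top. Lytic HiBiT luminescence read; DC50 and Emax (% protein remaining) from dose-response curves.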

RET (658-1114) = target: T2, RET (658-1114) (Homo sapiens, UniProt P07949); experiment: HiBiT-Degradation, RET wild-type degradation assay (Nano-Glo HiBiT Lytic), 293T.144 cells; format: cell-based; details: for DC50 / Emax: 6.0 hours
T2 construct: 658-1114; expressed in transfected cells; host or cells: 293T.144 (293T cells, generated in-house)
T2 sequence (P07949 658-1114): T1 sequence (P07949 658-1114 G810R) with R153G
Procedure, shortened: as §1

[1] = % remaining protein, read-out: 293T.165 RET(KD: 658-1114 G810R) 6.0 hours (Emax)
[2] = half-maximal degradation concentration, read-out: 293T.165 RET(KD: 658-1114 G810R) 6.0 hours (DC50)
[3] = HiBiT-Degradation, read-out: 293T.165 RET(KD: 658-1114 G810R) 6.0 hours (DC50)
[4] = HiBiT-Degradation, read-out: 293T.144 RET (658-1114) 6.0 hours (DC50)
[5] = HiBiT-Degradation, read-out: 293T.144 RET (658-1114) 6.0 hours (Emax)
[6] = % remaining protein, read-out: 293T.144 RET (658-1114) 6.0 hours (Emax)
[7] = half-maximal degradation concentration, read-out: 293T.144 RET (658-1114) 6.0 hours (DC50)

SMILES | Emax (RET(KD: 658-1114 G810R); [1]) | DC50 (RET(KD: 658-1114 G810R); [2]) | 293T.165 RET(KD: 658-1114 G810R) 6.0 hours (Emax) (RET(KD: 658-1114 G810R); HiBiT-Degradation) | 293T.165 RET(KD: 658-1114 G810R) 6.0 hours (IP) [nM] (RET(KD: 658-1114 G810R); HiBiT-Degradation) | DC50 (RET(KD: 658-1114 G810R); [3]) | 293T.144 RET (658-1114) 6.0 hours (IP) [nM] (RET (658-1114); HiBiT-Degradation) | DC50 (RET (658-1114); [4]) | Emax (RET (658-1114); [5]) | HiBiT-Degradation 293T.165 RET(KD: 658-1114 G810R) 6.0 hours (IP) [nM] (RET(KD: 658-1114 G810R); RET G810R) | DC50 (RET(KD: 658-1114 G810R); RET G810R, read-out: HiBiT-Degradation 293T.165 RET(KD: 658-1114 G810R) 6.0 hours (DC50)) | Emax (RET(KD: 658-1114 G810R); RET G810R, read-out: HiBiT-Degradation 293T.165 RET(KD: 658-1114 G810R) 6.0 hours (Emax)) | HiBiT-Degradation 293T.144 RET (658-1114) 6.0 hours (IP) [nM] (RET (658-1114); RET wild-type) | DC50 (RET (658-1114); RET wild-type, read-out: HiBiT-Degradation 293T.144 RET (658-1114) 6.0 hours (DC50)) | Emax (RET (658-1114); RET wild-type, read-out: HiBiT-Degradation 293T.144 RET (658-1114) 6.0 hours (Emax)) | 293T.165 RET(KD: 658-1114 G810R) 6.0 hours (IP) [nM] (RET(KD: 658-1114 G810R)) | 293T.144 RET (658-1114) 6.0 hours (IP) [nM] (RET (658-1114)) | Emax (RET (658-1114); [6]) | DC50 (RET (658-1114); [7])
N#Cc1cnn2cc(-c3cnn(C4CCN(C(=O)NC5CCN(c6ccc(NC7CCC(=O)NC7=O)cc6F)CC5)CC4)c3)cc(-c3ccc(N4CCN(Cc5ccccn5)CC4)nc3)c12 (stereo not drawn) [Compound 77, 4-[4-[3-cyano-4-[6-[4-(2-pyridylmethyl)piperazin-1-yl]-3-pyridyl]pyrazolo[1,5-a]pyridin-6-yl]pyrazol-1-yl]-N-[1-[4-[(2,6-dioxo-3-piperidyl)amino]-2-fluoro-phenyl]-4-piperidyl]piperidine-1-carboxamide] | < 50% | < 100 nM | – | – | – | – | – | – | ++++ (< 50 nM = ++++) | < 100 nM | < 50% | ++++ (< 50 nM = ++++) | < 50 nM | < 30% | – | – | – | –
N#Cc1cnn2cc(-c3cnn([C@H]4CC[C@H](N5CCN(c6ccc(NC7CCC(=O)NC7=O)cc6F)CC5)CC4)c3)nc(-c3ccc(N4CC5COCC(C4)N5Cc4ccccn4)nc3)c12 (single isomer, unassigned) [Compound 157, 6-(1-((1r, 4r)-4-(4-(4-((2,6-dioxopiperidin-3-yl)amino)-2-fluorophenyl)piperazin-1-yl)cyclohexyl)-1H-pyrazol-4-yl)-4-(6-(9-(pyridin-2-ylmethyl)-3-oxa-7,9-diazabicyclo[3.3.1]nonan-7-yl)pyridin-3-yl)pyrazolo[1,5-a]pyrazine-3-carbonitrile] | < 30% | < 50 nM | – | – | – | – | – | – | – | – | – | – | – | – | ++++ (<50 nM = ++++) | ++++ (<50 nM = ++++) | < 30% | < 50 nM
CCOc1ccc(CN2[C@@H]3COC[C@H]2CN(c2ccc(-c4nc(-c5cnn([C@H]6CC[C@H](N7CCN(c8c(F)cc(NC9CCC(=O)NC9=O)cc8F)CC7)CC6)c5)cn5ncc(C#N)c45)cn2)C3)cn1 (mixture of isomers) [Compound 212, 6-[1-[4-[4-[4-[(2,6-dioxo-3-piperidyl)amino]-2,6-difluoro-phenyl]piperazin-1-yl]cyclohexyl]pyrazol-4-yl]-4-[6-[rac-(1R,5S)-9-[(6-ethoxy-3-pyridyl)methyl]-3-oxa-7,9-diazabicyclo[3.3.1]nonan-7-yl]-3-pyridyl]pyrazolo[1,5-a]pyrazine-3-carbonitrile] | < 30% | < 100 nM | – | – | – | – | – | – | – | – | – | – | – | – | +++ (<100 nM = +++) | ++++ (<50 nM = ++++) | < 30% | < 50 nM
Cn1nc(N2CCC(=O)NC2=O)c2ccc(C3CCN(CC(=O)N4CCC(n5cc(-c6cc(-c7ccc(N8CCN(Cc9ccccn9)CC8)nc7)c7c(C#N)cnn7c6)cn5)CC4)CC3)cc21 [Compound 13, 6-(1-(1-(2-(4-(3-(2,4-dioxotetrahydropyrimidin-1(2H)-yl)-1-methyl-1H-indazol-6-yl)piperidin-1-yl)acetyl)piperidin-4-yl)-1H-pyrazol-4-yl)-4-(6-(4-(pyridin-2-ylmethyl)piperazin-1-yl)pyridin-3-yl)pyrazolo[1,5-a]pyridine-3-carbonitrile] | < 50% | < 100 nM | +++ (<50% = +++) | ++++ (< 50 nM = ++++) | < 100 nM | ++++ (< 50 nM = ++++) | < 50 nM | < 30% | – | – | – | – | – | – | – | – | – | –
CCC1(C(=O)NC(C)C)CCN(c2ccc(-c3cc(-c4ccc(N5CCC(O)(CCN6CCC(c7ccc(NC8CCC(=O)NC8=O)cc7F)CC6)CC5)cc4)cn4ncc(C#N)c34)cn2)CC1 (stereo not drawn) [Compound 39, 1-(5-(3-Cyano-6-(4-(4-(2-(4-(4-((2,6-dioxopiperidin-3-yl)amino)-2-fluorophenyl)piperidin-1-yl)ethyl)-4-hydroxypiperidin-1-yl)phenyl)pyrazolo[1,5-a]pyridin-4-yl)pyridin-2-yl)-4-ethyl-N-isopropylpiperidine-4-carboxamide] | < 30% | < 50 nM | ++++ (< 30% = ++++) | ++++ (< 50 nM = ++++) | < 50 nM | ++++ (< 50 nM = ++++) | < 50 nM | < 30% | – | – | – | – | – | – | – | – | – | –

Now from value to compound, other results behind:

Emax (RET(KD: 658-1114 G810R); [1]) | DC50 (RET(KD: 658-1114 G810R); [2]) | 293T.165 RET(KD: 658-1114 G810R) 6.0 hours (Emax) (RET(KD: 658-1114 G810R); HiBiT-Degradation) | 293T.165 RET(KD: 658-1114 G810R) 6.0 hours (IP) [nM] (RET(KD: 658-1114 G810R); HiBiT-Degradation) | DC50 (RET(KD: 658-1114 G810R); [3]) | 293T.144 RET (658-1114) 6.0 hours (IP) [nM] (RET (658-1114); HiBiT-Degradation) | DC50 (RET (658-1114); [4]) | Emax (RET (658-1114); [5]) | HiBiT-Degradation 293T.165 RET(KD: 658-1114 G810R) 6.0 hours (IP) [nM] (RET(KD: 658-1114 G810R); RET G810R) | DC50 (RET(KD: 658-1114 G810R); RET G810R, read-out: HiBiT-Degradation 293T.165 RET(KD: 658-1114 G810R) 6.0 hours (DC50)) | Emax (RET(KD: 658-1114 G810R); RET G810R, read-out: HiBiT-Degradation 293T.165 RET(KD: 658-1114 G810R) 6.0 hours (Emax)) | HiBiT-Degradation 293T.144 RET (658-1114) 6.0 hours (IP) [nM] (RET (658-1114); RET wild-type) | DC50 (RET (658-1114); RET wild-type, read-out: HiBiT-Degradation 293T.144 RET (658-1114) 6.0 hours (DC50)) | Emax (RET (658-1114); RET wild-type, read-out: HiBiT-Degradation 293T.144 RET (658-1114) 6.0 hours (Emax)) | SMILES | 293T.165 RET(KD: 658-1114 G810R) 6.0 hours (IP) [nM] (RET(KD: 658-1114 G810R)) | 293T.144 RET (658-1114) 6.0 hours (IP) [nM] (RET (658-1114)) | Emax (RET (658-1114); [6]) | DC50 (RET (658-1114); [7])
< 50% | < 100 nM | +++ (<50% = +++) | ++++ (< 50 nM = ++++) | < 100 nM | ++++ (< 50 nM = ++++) | < 50 nM | < 30% | – | – | – | – | – | – | N#Cc1cnn2cc(-c3cnn(C4CCN(C(=O)CN5CCC(c6ccc(NC7CCC(=O)NC7=O)cc6F)CC5)CC4)c3)nc(-c3ccc(N4CCN(C(=O)Cc5ccc(F)cn5)CC4)nc3)c12 (stereo not drawn) [Compound 51, 6-[1-[1-[2-[4-[4-[(2,6-dioxo-3-piperidyl)amino]-2-fluoro-phenyl]-1-piperidyl]acetyl]-4-piperidyl]pyrazol-4-yl]-4-[6-[4-[2-(5-fluoro-2-pyridyl)acetyl]piperazin-1-yl]-3-pyridyl]pyrazolo[1,5-a]pyrazine-3-carbonitrile] | – | – | – | –
< 50% | < 100 nM | +++ (<50% = +++) | ++++ (< 50 nM = ++++) | < 100 nM | ++++ (< 50 nM = ++++) | < 50 nM | < 30% | – | – | – | – | – | – | N#Cc1cnn2cc(-c3cnn(C4CCN(CCN5CCC(c6ccc(NC7CCC(=O)NC7=O)cc6F)CC5)CC4)c3)cc(-c3ccc(N4CCN(Cc5ccccn5)CC4)nc3)c12 (stereo not drawn) [Compound 12, 6-(1-(1-(2-(4-(4-((2,6-Dioxopiperidin-3-yl)amino)-2-fluorophenyl)piperidin-1-yl)ethyl)piperidin-4-yl)-1H-pyrazol-4-yl)-4-(6-(4-(pyridin-2-ylmethyl)piperazin-1-yl)pyridin-3-yl)pyrazolo[1,5-a]pyridine-3-carbonitrile] | – | – | – | –
< 50% | < 100 nM | +++ (<50% = +++) | ++++ (< 50 nM = ++++) | < 100 nM | ++++ (< 50 nM = ++++) | < 50 nM | < 30% | – | – | – | – | – | – | N#Cc1cnn2cc(-c3ccc(N4CCN(C(=O)CN5CCC(c6ccc(NC7CCC(=O)NC7=O)cc6F)CC5)CC4)cc3)nc(-c3ccc(N4CCN(C(=O)Cc5ccc(F)cn5)CC4)nc3)c12 (stereo not drawn) [Compound 52, 6-[4-[4-[2-[4-[4-[(2,6-dioxo-3-piperidyl)amino]-2-fluoro-phenyl]-1-piperidyl]acetyl]piperazin-1-yl]phenyl]-4-[6-[4-[2-(5-fluoro-2-pyridyl)acetyl]piperazin-1-yl]-3-pyridyl]pyrazolo[1,5-a]pyrazine-3-carbonitrile] | – | – | – | –
< 50% | < 100 nM | – | – | – | – | – | – | – | – | – | – | – | – | CCC1(C(=O)NC(C)C)CCN(c2ccc(-c3nc(-c4cnn(C5CCN(C(=O)Cc6ccc(-c7ccc(NC8CCC(=O)NC8=O)cc7F)cc6)CC5)c4)cn4ncc(C#N)c34)cn2)CC1 (stereo not drawn) [Compound 89, 1-[5-[3-cyano-6-[1-[1-[2-[4-[4-[(2,6-dioxo-3-piperidyl)amino]-2-fluoro-phenyl]phenyl]acetyl]-4-piperidyl]pyrazol-4-yl]pyrazolo[1,5-a]pyrazin-4-yl]-2-pyridyl]-4-ethyl-N-isopropyl-piperidine-4-carboxamide] | ++++ (<50 nM = ++++) | ++++ (<50 nM = ++++) | < 30% | < 50 nM
